According to a melting point compilation (Tetko et al.; mined from patent text by program, amines drawn as free bases though some values may be those of a salt):

melting point | SMILES
71 to 73 °C | CCC(CCN=C(O)C(Br)=C(Br)C(=O)O)c1ccccc1 (stereo unspecified)
124 to 126 °C | COc1ccc(-c2ccc(C#CC(=O)O)s2)cc1C(C)(C)C
250 to 251 °C | CCOc1cc2cc(CO)nc(-c3ccnc(-n4nc(-c5cc(OC)c(OC)c(OC)c5)c5sccc5c4=O)c3)c2cc1OCC
206 °C | N#Cc1cnn2c(C(F)(F)F)cc(-c3ccc(Cl)c(Cl)c3)nc12
132 to 134 °C | COc1ccc(N2CCN(Cc3n[nH]c4ccccc34)CC2)nc1
103 to 107 °C | Nc1ccccc1C(=O)C=CC(=O)O
258 °C | CC(=O)OCC(=O)C1(OC(=O)c2ccccc2)CCC2C3CC(C)C4=CC(=O)C=CC4(C)C3C(O)CC21C (stereo unspecified)
89.5 to 90 °C | CC(CO)(CO)OCc1ccccc1
124 to 125 °C | CN1CCN(C(=O)/C=C/c2occc(=O)c2OCC(=O)OC(C)(C)C)CC1
160 °C | CCOc1cccc(C)c1S(=O)(=O)NC(=O)n1nc(OCC)n(C)c1=O
97 to 100 °C | Cc1ccc(-c2cc3ccc4ccccc4c3o2)cc1
108 to 109 °C | CCOc1ccccc1OCC(O)CNC(C)=CC(=O)c1ccc(C)nc1 (single isomer, unassigned; (-))
182 to 184 °C | Cn1cnc2c1C(=O)N1CCN=C1N2Cc1ccc(Cl)cc1
118 to 120 °C | Nc1cccc(C(=O)Nc2ccccc2)c1
192 to 194 °C | COc1cc2c(cc1OC)C1=C(C#N)SCCC(=O)N1CC2
79 to 81 °C | COC(=O)c1cccc(O)c1O
118 °C | Cc1ccsc1C(=O)C(=CN(C)C)c1ccc(C(F)(F)F)cc1[N+](=O)[O-]
246 °C | CC(=O)N[C@@H]1CCN(S(=O)(=O)c2ccc(Cl)c(COc3cccc4c(-n5ccnc5)cc(C)nc34)c2Cl)C1
224 °C | CC(C)(C(O)c1ccc(Br)cc1)n1ncn(-c2ccc(N3CCN(c4ccc(O)cc4)CC3)cc2)c1=O (stereo unspecified)

melting point | SMILES
> 270 °C | N#CNC(=S)Nc1ccc(OCc2ccccc2)cc1
259 to 260 °C | Cc1cccc(C)c1CNc1cc(C(=O)NCCO)cc2c1nc(C)n2C
72 to 74 °C | Cc1ccc(CCOc2ncnc3c(F)cccc23)cc1
206 °C | COc1cc(C(=O)Oc2ccc3c(OC(=O)c4ccc(O)c(OC)c4)c4cc(OC(=O)c5ccc(O)c(OC)c5)ccc4cc3c2)ccc1O
158 to 160 °C | Nc1c(C(=O)c2ccccc2OCc2ccccc2)oc2ccc(Cl)cc12
120 to 125 °C | COc1ccccc1NC(=O)Nc1nc(Nc2ccccc2-c2ccccc2)nc(N(CC(=O)O)Cc2ccc(F)cc2)n1
153 °C | Cn1c([N+](=O)[O-])cnc1COc1ccc([N+](=O)[O-])cc1C(F)(F)F
126 °C | COC(=O)c1cc(C(=O)c2cccc(Cl)c2)cn1C
170 °C | Cc1ccc2c(N)nc(-c3cccc4ccccc34)cc2c1
197 to 203 °C | CC(=O)c1ccc2c(c1)C(C(=O)Nc1cccc(C(=O)Nc3ccccc3)c1)C(=O)N2CC(F)(F)F (stereo unspecified)
123 to 125 °C | CC(C)c1ccc(N(Cc2ccc(N(C)C)cc2)C(=O)C2CCCc3ccc(C(C)C)cc32)cc1 (stereo unspecified)
96 °C | COc1ccc(CCNC(=O)C=Cc2cccs2)cc1S(=O)(=O)NC(=S)NC(C)C
165 to 167 °C | CNc1cc(C(=O)CS(C)(=O)=O)cc(NC)c1Cl
95 to 96 °C | Cc1cccc(C2COc3c(ccc(O)c3O)C2)c1 (stereo unspecified)
181 to 184 °C | CC(C)(C)c1ccc2sc3cc(C#N)ccc3c(=O)c2c1
115 to 116 °C | CCOC(=O)CNc1ncccc1NC(=O)c1ccccc1
149 to 150 °C | NCCSc1c(S(=O)(=O)c2ccccc2)c2ccccc2n1Cc1ccccc1
58 °C | C=C1CC(C=CC(O)CCCCC)C(O)(Cc2cccc(OCc3ccccc3)c2)C1 (stereo unspecified)

Second part, the compound before the results:

SMILES | melting point
CCOC(=O)C1=Cc2sccc2S(=O)(=O)N1C | 87 to 89 °C
O=C(C=C1CCN(CCc2ccc(F)cc2)CC1)NCc1ccc(F)c(F)c1 | 117 to 120 °C
CCCCOc1ccc(OCCN2CCN(c3cc(Cl)nnc3Cl)CC2)cc1 | 135 to 136 °C
COc1cc(C(C)C)c2c(c1)S(=O)(=O)N(COc1cc(C#N)nn1-c1ccccc1)C2=O | 114 to 116 °C
CN(C)S(=O)(=O)c1cc(-c2csc(=Nc3ccccc3)n2C)ccc1Cl | 180 °C
CCc1nc(O)c(I)c(Cl)n1 | > 230 °C
COCCOCCN1C(=O)C2(COc3cc4c(cc32)OCCO4)c2c1ccc1ncsc21 (stereo unspecified) | 156 to 158 °C
O=C1CN(Cc2ccccc2)c2cc(Br)ccc2N1 | 174 to 176 °C
Fc1ccccc1N1CCN(Cc2cn3cc(Cl)ccc3n2)CC1 | 107 to 108 °C
COc1cc2c(cc1N1CCNCC1)OCC2 | 108 to 109 °C
CC(=O)c1ccc(CNC(=O)OC(C)(C)C)cc1 | 73 to 75 °C
C=C(C)COC(=O)N1CCN(c2c(C(=O)N3CCN(C)CC3)c3ccccc3n2-c2ccccc2)CC1 | 141 to 143 °C
Fc1cc(Cn2cncn2)cc2c1Cc1c(-c3ccsc3)n[nH]c1-2 | 236 to 239 °C
O=C1COc2cc(SCc3ccc(O)cc3)ccc2N1 | 207 to 209 °C
Cc1c(O)cc(N2C(=O)c3ccccc3C2=O)cc1C(=O)OCc1ccc([N+](=O)[O-])cc1 | 210 to 244 °C
CN(C)Cc1[nH]c2ccccc2c1Cn1ccnc1 | 153 to 156 °C
CCCCn1c(=O)n(CCN2CCC(C(=O)c3ccc(F)cc3)CC2)c(=O)c2cscc21 | 126 to 127 °C
COC(=O)Cc1cc(O)n(C)n1 | 148 °C
COc1ncnc2c1ncn2[C@H](C)[C@](O)(Cn1cncn1)c1ccc(F)cc1F | 124 to 125 °C
CC(Oc1ccc(F)cc1Cl)c1ccnc2ncnn12 (stereo unspecified) | 89 to 91 °C

SMILES | melting point
CCCn1c(=O)c2[nH]cnc2n(-c2ccc(Cl)cc2)c1=O | 233 to 234 °C
O=C(Nc1cccc2[nH]ccc12)c1ccccc1OCCN1CCCCC1 | 154 °C
CCCCN(CCCC)c1ccc(C=CC2=C(OC)C(=CC=CC3=C(C#N)C(=C(C#N)C#N)OC3(C)C(F)(F)F)CC(C)(C)C2)c(OC)c1 (stereo unspecified) | 141 to 151 °C
COC(=O)c1ccccc1-c1ccc(N(C)C)cn1 | 161 to 163 °C
COc1cc(C=C(C(=O)O)c2ccc(O)cc2)cc(OC)c1 | 135 to 137 °C
CCCCCCCCCCCCCCCCC(O)CCCOC1CCCCO1 (stereo unspecified) | 39 to 43 °C
CC1CCc2c(N3CCC(NC(=O)OC(C)(C)C)C3)c(F)cc3c(=O)n(N)c(=O)n1c23 (stereo unspecified) | 98 to 100 °C
Oc1ccc2cc(-c3cnc(Cc4ccc5ccccc5c4)o3)ccc2c1 | 188 to 191 °C
COCCCc1cc(Cl)cc2nc(Cc3ccccc3Cl)oc12 | 49 to 51 °C
NCC1CCn2c(c(C3=C(c4cccc(C(F)(F)F)c4)C(=O)NC3=O)c3ccccc32)C1 (stereo unspecified) | 202 to 204 °C
O=C(NC1CCN(CCc2ccc([N+](=O)[O-])cc2)CC1)c1ccccc1 | 209 to 216 °C
O=C(CCc1ccccc1)Nc1ccc(C(=O)NN=C2C(=O)Nc3ccc(I)cc32)cc1 | 297 °C
CC1CN2C(=O)c3nc[nH]c3N(Cc3ccc(Cl)cc3)C2=N1 (stereo unspecified) | 259 to 260 °C
CC(C)Oc1ccccc1-c1ncc(C(=O)O)c(=O)[nH]1 | 191 to 193 °C
CC(C)n1nc(-c2sc(NC(=O)c3ccccc3Cl)nc2-c2ccccc2)ccc1=O | 220 to 221 °C
COC(=O)c1ccc2c(c1)S(=O)(=O)NCN2C1CC1 | 178 to 180 °C
O=C(C=Cc1cc(OC(=O)c2ccccc2)c(OC(=O)c2ccccc2)c([N+](=O)[O-])c1)c1ccccc1 | 206 to 210 °C
CCCSc1sc(C(N)=O)c2c1-c1nc(-c3ccccc3)sc1CC2 | 203 to 204 °C
NNC(=O)c1cc2cc(Cl)ccc2s1 | 90 to 91 °C
COc1ccc(C2OCC(COC(C(F)(F)F)(C(F)(F)F)C(F)(F)F)(COC(C(F)(F)F)(C(F)(F)F)C(F)(F)F)CO2)cc1 | 89 to 90 °C

SMILES | melting point
CCOC(=O)NCCC(c1cc(F)ccc1F)S(=O)(=O)c1ccc(Cl)cc1 (stereo unspecified) | 121 to 122 °C
CCOC(=O)CCCCC(=O)Oc1cccc(-c2cn3c(n2)sc2ccccc23)c1 | 90 to 92 °C
CC(C)(C)OC(=O)N1CCN(C(=O)C(F)(F)F)CC1 | 66 to 68 °C
CCOC(=O)C(C)c1ccc(NC2OC(=O)c3ccccc32)cc1 (stereo unspecified) | 136 to 139 °C
COC(=O)Cc1ccc(N[C@@H](CCC(N)=O)C(=O)O)cc1 | 183 to 184 °C
COc1cc(OC)cc(N2CCN(C(=S)Nc3cc(C(C)O)c(C)nc3OC)CC2)c1 (stereo unspecified) | 189 to 190 °C
COC(=O)c1nc2n(c1C(=O)OC)-c1ccc(Cl)cc1C(c1ccccc1F)=NC2 | 206 to 207 °C
Cc1c(F)c(N2CCNCC2)c(F)c2c1c(=O)c(C(=O)O)cn2C1CC1 | 205 to 206 °C
CCN(Cc1ccc(Cl)nc1)C(=NC)C(=Cc1ccco1)[N+](=O)[O-] | 155 to 156 °C
O=c1[nH]c2ccc(Cl)cc2n1CCO | 160 °C
CCCN(CCC)CCc1cccc2[nH]c(=O)[nH]c12 | 189 to 192 °C
CC(=O)Nc1c(OC(C)=O)cc(C(C)(C)C)cc1[N+](=O)[O-] | 200 to 201 °C
CC(C)CC(=O)Nc1cccc(-c2ccnc3c(-c4cccc(C=O)c4)cnn23)c1 | 163 to 165 °C
Cc1ccc(-c2cc(N)nn2C(=O)OC(C)(C)C)cc1 | 147 °C
CC(C)(C)OC(=O)N1CCC(c2nc3cc(-c4ccc(-c5nnn[nH]5)c(F)c4)ccc3o2)CC1 | 163 to 167 °C
Cc1cc(-n2ccnc2)c2cccc(OCc3c(Cl)ccc(S(=O)(=O)N4CCC[C@H]4C(=O)NCC4CCN(Cc5cccnc5)CC4)c3Cl)c2n1 | 107 °C
COc1ccc(N2N=C3c4cc(C)sc4S(=O)(=O)CCC3CC2=O)cc1 (stereo unspecified) | 190 to 191 °C
O=C(O)c1ccc(OCCNC(=O)C2Cc3ccccc3N2S(=O)(=O)c2ccc(-c3cccc(C(F)(F)F)c3)cc2)c(Cl)c1 (stereo unspecified) | 135 to 140 °C
COc1cc(OC)c2c(=O)[nH]c(-c3cc(C)c(OCCO)c(C)c3)nc2n1 | 255 to 256 °C
